Article PMC4471549 (Angewandte Chemie (International Ed. in English), 2015)

Legend:
STAT5b (SH2 domain) = target: T1, STAT5b (SH2 domain) (Homo sapiens, UniProt P51692); assay: competitive fluorescence polarization assay; format: binding
T1 sequence (P51692 1-787 limits assumed): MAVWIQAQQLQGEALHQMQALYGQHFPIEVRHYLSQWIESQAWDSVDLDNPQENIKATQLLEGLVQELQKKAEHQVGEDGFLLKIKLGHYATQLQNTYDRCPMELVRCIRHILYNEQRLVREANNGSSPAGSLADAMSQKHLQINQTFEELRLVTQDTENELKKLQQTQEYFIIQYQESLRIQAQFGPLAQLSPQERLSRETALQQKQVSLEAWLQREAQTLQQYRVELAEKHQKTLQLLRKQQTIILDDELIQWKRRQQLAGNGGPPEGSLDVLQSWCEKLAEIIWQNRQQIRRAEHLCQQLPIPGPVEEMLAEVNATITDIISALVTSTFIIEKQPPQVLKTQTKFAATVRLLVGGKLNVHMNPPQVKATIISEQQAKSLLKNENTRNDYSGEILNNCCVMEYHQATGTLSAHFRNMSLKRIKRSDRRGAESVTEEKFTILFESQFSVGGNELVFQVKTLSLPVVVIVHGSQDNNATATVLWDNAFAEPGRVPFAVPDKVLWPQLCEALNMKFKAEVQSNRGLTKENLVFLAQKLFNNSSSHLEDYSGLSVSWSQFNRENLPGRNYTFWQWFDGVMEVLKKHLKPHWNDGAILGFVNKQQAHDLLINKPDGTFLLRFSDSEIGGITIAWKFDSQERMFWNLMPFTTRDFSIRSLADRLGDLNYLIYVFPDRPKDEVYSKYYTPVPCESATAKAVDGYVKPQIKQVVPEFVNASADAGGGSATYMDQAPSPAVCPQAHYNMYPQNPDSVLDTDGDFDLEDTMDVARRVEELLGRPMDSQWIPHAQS

STAT5a (SH2 domain) = target: T2, STAT5a (SH2 domain) (Homo sapiens, UniProt P42229); assay: competitive fluorescence polarization assay; format: binding
T2 sequence (P42229 1-794): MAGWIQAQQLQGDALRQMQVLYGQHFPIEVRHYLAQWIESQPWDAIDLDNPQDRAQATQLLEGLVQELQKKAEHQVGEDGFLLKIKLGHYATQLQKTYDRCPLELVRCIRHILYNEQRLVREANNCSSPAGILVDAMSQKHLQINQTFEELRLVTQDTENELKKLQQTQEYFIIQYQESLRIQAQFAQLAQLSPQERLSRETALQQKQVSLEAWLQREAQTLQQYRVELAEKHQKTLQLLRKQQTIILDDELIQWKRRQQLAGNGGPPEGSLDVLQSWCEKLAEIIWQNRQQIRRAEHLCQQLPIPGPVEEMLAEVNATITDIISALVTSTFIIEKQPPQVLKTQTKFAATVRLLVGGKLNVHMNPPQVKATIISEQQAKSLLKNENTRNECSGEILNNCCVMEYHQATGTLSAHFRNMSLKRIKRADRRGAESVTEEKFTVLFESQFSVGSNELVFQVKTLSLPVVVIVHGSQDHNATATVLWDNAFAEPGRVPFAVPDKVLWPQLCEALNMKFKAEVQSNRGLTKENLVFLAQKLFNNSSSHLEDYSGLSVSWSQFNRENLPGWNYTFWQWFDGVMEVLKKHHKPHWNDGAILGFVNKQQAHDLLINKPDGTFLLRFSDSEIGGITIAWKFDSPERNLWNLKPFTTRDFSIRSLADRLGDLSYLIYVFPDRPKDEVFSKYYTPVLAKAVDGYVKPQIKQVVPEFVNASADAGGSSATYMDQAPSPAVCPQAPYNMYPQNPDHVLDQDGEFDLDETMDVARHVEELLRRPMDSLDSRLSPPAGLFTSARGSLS

Row | Ki (STAT5b (SH2 domain)) [µM] | Ki (STAT5a (SH2 domain)) [µM] | Compound
1 | 0.46 ± 0.08 | 7.8 ± 1 | COC(=O)[C@H](Cc1ccc(OP(=O)(O)O)c(OP(=O)(O)O)c1)NC(=O)OCC1c2ccccc2-c2ccccc21 [compound 8, Fmoc-protected L-Dopa methyl ester bisphosphate]
2 | 0.45 ± 0.04 | 16 ± 0.8 | O=C(NCCc1ccc(OP(=O)(O)O)c(OP(=O)(O)O)c1)OCC1c2ccccc2-c2ccccc21 [compound 7, Fmoc-protected dopamine bisphosphate]
